Assay: molar heat capacity at constant pressure
Details: 101.33 kPa, Small (less than 1 g) adiabatic calorimetry

COc1ccc(C2(c3ccc(OC)c(C)c3)OC(=O)c3ccccc32)cc1C [3,3-bis(4-methoxy-3-methylphenyl)-1(3H)-isobenzofuranone]
Details | molar heat capacity at constant pressure [J/K/mol]
5.802 K, Glass | 2.967
6.011 K, Crystal | 1.658
6.232 K, Glass | 3.526
6.486 K, Crystal | 2.176
6.689 K, Glass | 4.234
6.977 K, Crystal | 2.797
7.179 K, Glass | 5.003
7.498 K, Crystal | 3.461
7.715 K, Glass | 5.872
8.061 K, Crystal | 4.249
8.282 K, Glass | 6.885
8.65 K, Crystal | 5.21
8.874 K, Glass | 8.044
9.274 K, Crystal | 6.207
9.483 K, Glass | 9.187
9.939 K, Crystal | 7.418
10.1 K, Glass | 10.44
10.63 K, Crystal | 8.764
10.73 K, Glass | 11.74
11.34 K, Crystal | 10.21
11.35 K, Glass | 13.13
11.98 K, Glass | 14.45
12.03 K, Crystal | 11.58
12.62 K, Glass | 15.86
12.71 K, Crystal | 13.08
13.28 K, Glass | 17.41
13.41 K, Crystal | 14.58
13.96 K, Glass | 18.93
14.13 K, Crystal | 16.23
14.66 K, Glass | 20.58
14.89 K, Crystal | 18.08
15.39 K, Glass | 22.28
15.68 K, Crystal | 19.91
16.15 K, Glass | 24.12
16.49 K, Crystal | 21.8
16.94 K, Glass | 25.94
17.04 K, Crystal | 22.93
17.66 K, Glass | 27.62
17.91 K, Crystal | 25.25
18.49 K, Glass | 29.63
18.78 K, Crystal | 27.27
19.34 K, Glass | 31.77
19.67 K, Crystal | 29.41
20.21 K, Glass | 33.84
20.58 K, Crystal | 31.37
21.11 K, Glass | 35.96
21.5 K, Crystal | 33.68
22.03 K, Glass | 38.09
22.45 K, Crystal | 35.73
23 K, Glass | 40.41
23.44 K, Crystal | 38.11
24.02 K, Glass | 42.79
24.48 K, Crystal | 40.68
25.08 K, Glass | 45.25
25.54 K, Crystal | 43.24
26.16 K, Glass | 47.65
26.63 K, Crystal | 45.57
27.26 K, Glass | 50.09
27.74 K, Crystal | 48.13
28.38 K, Glass | 52.99
28.86 K, Crystal | 51.61
29.5 K, Glass | 56.69
29.99 K, Crystal | 54.09
30.63 K, Glass | 57.45
31.12 K, Crystal | 55.63
31.76 K, Glass | 60.08
32.25 K, Crystal | 58.38
32.9 K, Glass | 63.09
33.39 K, Crystal | 61.18
34.06 K, Glass | 65.62
34.56 K, Crystal | 63.78
35.25 K, Glass | 68.43
35.74 K, Crystal | 66.5
36.45 K, Glass | 70.84
36.95 K, Crystal | 69.15
37.67 K, Glass | 73.54
38.17 K, Crystal | 71.7
38.9 K, Glass | 75.9
39.4 K, Crystal | 74.01
40.15 K, Glass | 78.39
40.66 K, Crystal | 76.39
41.41 K, Glass | 80.76
41.94 K, Crystal | 79
42.68 K, Glass | 83.53
43.23 K, Crystal | 81.44
43.93 K, Glass | 85.97
44.51 K, Crystal | 83.92
45.19 K, Glass | 88.07
45.78 K, Crystal | 86.54
46.45 K, Glass | 90.22
47.06 K, Crystal | 89.06
47.71 K, Glass | 93.04
48.33 K, Crystal | 91.12
48.97 K, Glass | 95.25
49.6 K, Crystal | 94.6
50.23 K, Glass | 98.01
50.87 K, Crystal | 97.15
51.48 K, Glass | 100.37
52.14 K, Crystal | 99.73
52.74 K, Glass | 103.27
53.41 K, Crystal | 102.49
54 K, Glass | 105.75
54.68 K, Crystal | 105
55.27 K, Glass | 108.28
55.95 K, Crystal | 107.6
56.53 K, Glass | 110.76
57.22 K, Crystal | 109.68
57.79 K, Glass | 113.22
58.5 K, Crystal | 112.22
59.06 K, Glass | 115.64
59.77 K, Crystal | 114.59
60.33 K, Glass | 117.82
61.05 K, Crystal | 116.87
61.6 K, Glass | 120.17
62.33 K, Crystal | 119.39
62.87 K, Glass | 122.44
63.61 K, Crystal | 121.85
64.15 K, Glass | 124.78
64.89 K, Crystal | 123.86
65.43 K, Glass | 126.76
66.18 K, Crystal | 125.9
66.72 K, Glass | 129.06
67.47 K, Crystal | 128.08
68.01 K, Glass | 131.4
68.77 K, Crystal | 130.54
69.3 K, Glass | 133.63
70.07 K, Crystal | 132.99
70.6 K, Glass | 136.05
71.38 K, Crystal | 135.25
71.91 K, Glass | 138.21
72.69 K, Crystal | 137.49
73.22 K, Glass | 140.28
74.01 K, Crystal | 139.48
74.59 K, Glass | 142.77
75.33 K, Crystal | 141.75
76.03 K, Glass | 145.08
76.66 K, Crystal | 144.1
77.47 K, Glass | 147.57
77.99 K, Crystal | 146.27
78.91 K, Glass | 149.7
79.33 K, Crystal | 148.82
80.36 K, Glass | 152.24
80.67 K, Crystal | 150.88
81.81 K, Glass | 154.61
82.09 K, Crystal | 152.82
83.27 K, Glass | 156.85
83.57 K, Crystal | 155.34
84.73 K, Glass | 159.35
85.06 K, Crystal | 157.59
86.19 K, Glass | 161.67
86.55 K, Crystal | 160.21
87.66 K, Glass | 164.03
88.04 K, Crystal | 162.51
89.14 K, Glass | 166.13
89.54 K, Crystal | 164.72
90.62 K, Glass | 168.74
91.05 K, Crystal | 167.41
92.11 K, Glass | 171.18
92.56 K, Crystal | 169.71
93.61 K, Glass | 173.56
94.08 K, Crystal | 172.05
95.11 K, Glass | 176.28
95.6 K, Crystal | 174.26
96.62 K, Glass | 178.27
97.14 K, Crystal | 176.64
98.14 K, Glass | 180.03
98.67 K, Crystal | 178.97
99.67 K, Glass | 182.72
100.22 K, Crystal | 181.39
101.2 K, Glass | 185
101.77 K, Crystal | 183.97
102.74 K, Glass | 186.83
103.33 K, Crystal | 186.52
104.29 K, Glass | 189.85
104.9 K, Crystal | 188.69
105.85 K, Glass | 192.15
106.48 K, Crystal | 190.79
107.42 K, Glass | 194.15
108.07 K, Crystal | 193.1
109 K, Glass | 196.63
109.72 K, Crystal | 195.77
110.58 K, Glass | 199.21
111.45 K, Crystal | 198.35
112.18 K, Glass | 201.62
113.19 K, Crystal | 200.89
113.78 K, Glass | 204.03
114.95 K, Crystal | 203.39
115.4 K, Glass | 206.27
116.73 K, Crystal | 205.7
117.1 K, Glass | 208.63
118.52 K, Crystal | 209.32
118.89 K, Glass | 211.16
120.34 K, Crystal | 211.71
120.69 K, Glass | 213.89
